Here are results for five compounds from patent US20150265558A1, “TREATMENT OF ADHD” (BTG International Limited, priority 2004, published 2015).

SMILES strings stand for the structures.

In data set [1] the test system is Fisher rats (frontal cortex, hippocampus, striatum, reticular formation). Put plainly: Tele-Stereo-EEG: electrical power of four brain areas in freely-moving rats after single i.p. dose. The data set is classed as in vivo, rat. From the text: Analysis of brain field potentials (“Tele-Stereo-EEG”) has been proven to be a very sensitive tool for the characterization of drug effects on the central nervous system (Dimpfel et al., 1986). After administration of a centrally active drug, quantitative changes in the brain field potentials can be considered as a characteristic fingerprint of that particular drug. “Fingerprints” of more than 100 compounds have been obtained including 8 established drug categories, e.g. stimulants, sedatives, hallucinogenics, tranquilizers, analgesics, antidepressants, neuroleptics, and narcotics. Different dosages of the same drug cause quantitative changes in electrical power. […] Direct comparison with specific reference drugs, or by discriminant analysis with reference to an extensive fingerprint database, permits the detection of any possible similarities with established drugs. In general, “fingerprints” show prominent differences for drugs prescribed for different indications and are similar for drugs with the same indication (Dimpfel, 2003). Furthermore, the pattern of EEG changes in the rat is a useful tool in predicting possible changes in the EEG power spectrum in humans.
Adult Fisher rats (4-6 month of age and day—night converted, bodyweight approximately 400 g) were implanted with 4 bipolar concentric steel electrodes using a stereotaxic surgical procedure. According to the coordinates of Paxinos and Watson (1982), all four electrodes were placed 3 mm lateral within the left hemisphere. Anterior coordinates were 12.2, 5.7, 9.7 and 3.7 mm for frontal cortex, hippocampus, striatum and reticular formation, respectively. A baseplate carrying the electrodes and a 5-pin-plug was fixed to the skull by dental cement attached to 3 steel screws fixed into the skull. Animals were given two weeks for recovery from the surgical procedure.
EEG signals were recorded from frontal cortex, hippocampus, striatum and reticular formation and were amplified and processed as described by Dimpfel et al. (1986). After automatic artifact rejection, signals were collected in sweeps of 4 s duration and submitted to Fast Fourier transformation. The resulting electrical power spectra were divided into 6 frequency ranges: delta (0.8-4.5 Hz); theta (4.75-6.75 Hz); alpha1 (7.00-9.50 Hz); alpha2 (9.75-12.50 Hz); beta (12.75-18.50 Hz); beta2 (18.75-35.00 Hz). […] In an off-line procedure spectra were averaged to give 15 minute or longer periods for further statistical analysis.
Four doses of KTX 0101 (sodium (R)-3-hydroxybuytrate: 100, 300, 600 and 1000 mg/kg body weight) (supplied by Solvias AG, CH 4002 Basel, Switzerland, batch No: SO-1058.047.1.120) and a vehicle control (0.9% w/v saline) were administered intraperitoneally to a group of 12 animals using a crossover design with at least 3 drug holidays in between the applications. After a pre-drug period of 45 minutes for baseline recording, drug effects were observed continuously for 300 minutes. Changes of electrical power (uV2/W) are expressed as percentage of the 45 minute pre-drug values. Multivariate statistics were calculated according to Ahrens and Läuter (1974).

Data set [2] is described as follows: Plasma determination of (R)-3-hydroxybutyrate after i.p. injection. Format: in vivo, Sprague-Dawley rats. The protocol: (§1) One hundred and seventy-one male Sprague-Dawley rats (weight range 200-250 g) housed on a standard […] were used. Animals had free access to a standard pelleted rat diet and tap water at all times. KTX 0101 (sodium (R)-3-hydroxybuytrate; 100, 300, 600 and 1000 mg/kg body weight) supplied by Sigma (H6501, Lot 111K2618) was administered by intraperitoneal injection. Control animals received the appropriate 0.9% saline vehicle via the same route. Animals were killed by CO2 asphyxiation 0 h, 0.5 h, 1.0 h or 2.0 h after dosing and a terminal blood sample was collected by cardiac puncture. Blood was taken in lithium heparinised tubes and kept on ice prior to centrifugation to yield the plasma samples for analysis.
Commercial clinical assay kits for the determination of D-β-hydroxybutyrate were obtained from Randox Laboratories (Antrim, UK). The kit quantified NADH via the activity of β-hydroxybutyrate dehydrogenase measured as an increase in OD340 nm. An alkaline pH is necessary to drive the reaction equilibrium towards the production of NADH and acetoacetate.
This spectrophotometric assay was modified for application to a 96 well microplate format. The reaction rate was then determined from the increase in OD340 nm over a 1 minute time course, after allowing a necessary period for the reaction rate to settle.

Data set [3] can be described thus: Plasma determination of acetoacetate after i.p. injection. Particulars: 30 min after dosing. Format: in vivo, Sprague-Dawley rats. The protocol: as §1
The assay developed for the determination of acetoacetate was based on previously published clinical assays (Li et al, 1980; McMurray et al, 1984). A different assay buffer was prepared (0.1M Na2PO4 adjusted to pH 7.0 with HCl) in order to shift the equilibrium of the reaction to production of […] and NAD+, Other modifications included the additional use of sodium oxalate at a final assay concentration of 20 mM to inhibit lactate dehydrogenase (LDH) present in the plasma samples. […]
Acetoacetate was measured via the reduction in OD340 nm over a 1 minute period after allowing for the reaction rate to settle.

A further data set relates to freely moving rat. The note with it: cited from earlier work; for effect on alpha2 frequencies: Dimpfel et al., 1987.

For `C[C@@H](O)CC(=O)[O-].[Na+]` [KTX 0101, sodium (R)-3-hydroxybuytrate], the “duration of EEG effects” value in data set [1] (100 mg/kg i.p.) is 1 to 2 h; in data set [1] (600 mg/kg ip, generally, except reticular formation), 2 h. In addition, the “statistical significance of EEG changes” value in data set [1] (100 mg/kg i.p.) was “not statistically significant”; in data set [1] (300 mg/kg ip) it was “only statistically significant in the reticular formation”; in data set [1] (600 mg/kg ip, incl. first hour in striatum and all 24 variables overall) it was “statistically significant”; in data set [1] (1000 mg/kg, even for the 4th hour within the reticular formation) it was “statistically significant”. In addition, the “pattern of change in EEG electrical power” value in data set [1] (100 mg/kg i.p., all regions) was “decrease of electrical power mainly with regard to alpha2”; in data set [1] (300 mg/kg ip) it was “decreases in alpha2 power throughout all brain regions”; in data set [1] (1000 mg/kg), “more prominent decreases of power”. In addition, the “duration of EEG pattern of changes” value in data set [1] (300 mg/kg ip) stood at 2 h. In data set [1] (600 mg/kg ip, reticular formation), the “duration of decreases in power in the reticular formation” value is recorded as “persisted throughout the third hour”. Also, in data set [1] (1000 mg/kg), the “duration of decreases of power” value is given as “lasting into the third hour”. Moreover, the “duration of decreases of power in the reticular formation” value in data set [1] (1000 mg/kg, reticular formation, total experimental time) is 5 h. In data set [1] (2 highest doses (600 and 1000 mg/kg)), the “brain regions with significant EEG changes” value was “significant changes were also observed in the frontal cortex, hippocampus and striatum”. Further, the “similarity of qEEG fingerprint to drug classes by discriminant analysis” value in data set [1] (24 variables, 20th to 50th min after single-dose application) was “close proximity to the dopaminergic psychostimulants, d-amphetamine and cocaine”. The EEG frequencies affected entry in data set [1] (100 to 1000 mg/kg i.p.) is “all frequencies, except for the beta2 range”. Moreover, in data set [1] (after injection), the “period of greatest changes in EEG patterns” value lay in the range of 5 to 65 min. Further, the “EEG changes, summary” value in data set [1] (dose range of 300 to 1000 mg/kg ip) was “clear, dose- and time-dependent statistically significant changes”. Also, in data set [2] (100, 300, 600 and 1000 mg/kg ip), the “plasma concentration of (R)-3-hydroxybutyrate” value was “clear dose-dependent increases”. For the same compound, the “time of highest elevation in plasma (R)-3-hydroxybutyrate” value in data set [2] (100-1000 mg/kg ip, first sample) was determined as 30 min. For the same compound, in data set [2] (after injection), the “time to return of plasma (R)-3-hydroxybutyrate to control values” was at most 1 h. In addition, the “plasma concentration of acetoacetate” value in data set [3] (600 mg/kg) and in data set [3] (1000 mg/kg) was “significantly increased” in each case.

For `N[C@@H](Cc1ccc(O)c(O)c1)C(=O)O` [L-DOPA], in the data set with freely moving rat, the “effect on alpha2 frequencies” value is “decrease alpha2 frequencies”.

As for `Oc1cc2c(cc1O)C(c1ccccc1)CNCC2` (stereo not drawn) [SKF 38393], in the data set on freely moving rat, the “effect on alpha2 frequencies” value is given as “decrease alpha2 frequencies”.

For the compound `CC(N)Cc1ccccc1` (stereo not drawn) [amphetamine], the “effect on alpha2 frequencies” value with freely moving rat was “decrease alpha2 frequencies”.

As for `Clc1cccc(Cl)c1N=C1NCCN1` [clonidine], in the data set with freely moving rat (Dimpfel and Schober, 2001), the “effect on theta activity” value is listed as “increase”.
